Reference: patent publication EP4813993A1, “COMPOUND, PREPARATION METHOD THEREFOR, AND USE THEREOF” (Sichuan Kelun Pharmaceutical Research Institute Co., Ltd., priority 2023, dated 2025)

Columns and labels:
[1] = Pharmacokinetic study in SD rats; type: in vivo; settings: for AUC(0-inf) / half-life / Cmax / Tmax / bioavailability: rat
Experimental: Experimental Example 2: Pharmacokinetic study of compounds in SD rats
Experimental animals: SD rats, male, 6-8 weeks old.
(§1) Compound preparation: 5% (final preparation volume) of DMSO was added to dissolve the test compound, and then 10% (final preparation volume) of Cremophor EL and 85% Saline were sequentially added.
Experimental design: The test compounds were administered to SD rats as a single dose via intravenous and oral administration, respectively (injection: 2 mg/kg; oral administration: 10 mg/kg; n = 3). The injection group was given free access to food and water. The oral group was fasted overnight (> 12 h) with free access to water, and was fed 4 h after administration. Blood samples were collected from the jugular vein of SD rats at the following time points: 5 min, 15 min, 0.5 h, 1 h, 2 h, 4 h, 8 h, and 24 h after injection administration; 15 min, 0.5 h, 1 h, 2 h, 4 h, 6 h, 8 h, and 24 h after oral administration. The collected blood samples were anticoagulated, placed in an ice bath, and then centrifuged at 6000 g for 5 min to separate plasma. The plasma samples were stored at -70 °C for analysis.
Sample monitoring: The concentrations of the designated compound drugs in plasma were determined by the LC-MS/MS method; the main pharmacokinetic parameters were calculated using the Winnolin 8.3 non-compartmental model.

[2] = molecular target: T1, Nav1.8 channels (Homo sapiens, UniProt Q9Y5Y9); test: Manual patch-clamp, current of stably overexpressed Nav1.8 channels (resting state voltage program); type: cell-based; settings: for inhibition at 0.01 µM: concentration of 10 nM
T1 construct: expressed in transfected cells
T1 sequence (Q9Y5Y9 whole entry): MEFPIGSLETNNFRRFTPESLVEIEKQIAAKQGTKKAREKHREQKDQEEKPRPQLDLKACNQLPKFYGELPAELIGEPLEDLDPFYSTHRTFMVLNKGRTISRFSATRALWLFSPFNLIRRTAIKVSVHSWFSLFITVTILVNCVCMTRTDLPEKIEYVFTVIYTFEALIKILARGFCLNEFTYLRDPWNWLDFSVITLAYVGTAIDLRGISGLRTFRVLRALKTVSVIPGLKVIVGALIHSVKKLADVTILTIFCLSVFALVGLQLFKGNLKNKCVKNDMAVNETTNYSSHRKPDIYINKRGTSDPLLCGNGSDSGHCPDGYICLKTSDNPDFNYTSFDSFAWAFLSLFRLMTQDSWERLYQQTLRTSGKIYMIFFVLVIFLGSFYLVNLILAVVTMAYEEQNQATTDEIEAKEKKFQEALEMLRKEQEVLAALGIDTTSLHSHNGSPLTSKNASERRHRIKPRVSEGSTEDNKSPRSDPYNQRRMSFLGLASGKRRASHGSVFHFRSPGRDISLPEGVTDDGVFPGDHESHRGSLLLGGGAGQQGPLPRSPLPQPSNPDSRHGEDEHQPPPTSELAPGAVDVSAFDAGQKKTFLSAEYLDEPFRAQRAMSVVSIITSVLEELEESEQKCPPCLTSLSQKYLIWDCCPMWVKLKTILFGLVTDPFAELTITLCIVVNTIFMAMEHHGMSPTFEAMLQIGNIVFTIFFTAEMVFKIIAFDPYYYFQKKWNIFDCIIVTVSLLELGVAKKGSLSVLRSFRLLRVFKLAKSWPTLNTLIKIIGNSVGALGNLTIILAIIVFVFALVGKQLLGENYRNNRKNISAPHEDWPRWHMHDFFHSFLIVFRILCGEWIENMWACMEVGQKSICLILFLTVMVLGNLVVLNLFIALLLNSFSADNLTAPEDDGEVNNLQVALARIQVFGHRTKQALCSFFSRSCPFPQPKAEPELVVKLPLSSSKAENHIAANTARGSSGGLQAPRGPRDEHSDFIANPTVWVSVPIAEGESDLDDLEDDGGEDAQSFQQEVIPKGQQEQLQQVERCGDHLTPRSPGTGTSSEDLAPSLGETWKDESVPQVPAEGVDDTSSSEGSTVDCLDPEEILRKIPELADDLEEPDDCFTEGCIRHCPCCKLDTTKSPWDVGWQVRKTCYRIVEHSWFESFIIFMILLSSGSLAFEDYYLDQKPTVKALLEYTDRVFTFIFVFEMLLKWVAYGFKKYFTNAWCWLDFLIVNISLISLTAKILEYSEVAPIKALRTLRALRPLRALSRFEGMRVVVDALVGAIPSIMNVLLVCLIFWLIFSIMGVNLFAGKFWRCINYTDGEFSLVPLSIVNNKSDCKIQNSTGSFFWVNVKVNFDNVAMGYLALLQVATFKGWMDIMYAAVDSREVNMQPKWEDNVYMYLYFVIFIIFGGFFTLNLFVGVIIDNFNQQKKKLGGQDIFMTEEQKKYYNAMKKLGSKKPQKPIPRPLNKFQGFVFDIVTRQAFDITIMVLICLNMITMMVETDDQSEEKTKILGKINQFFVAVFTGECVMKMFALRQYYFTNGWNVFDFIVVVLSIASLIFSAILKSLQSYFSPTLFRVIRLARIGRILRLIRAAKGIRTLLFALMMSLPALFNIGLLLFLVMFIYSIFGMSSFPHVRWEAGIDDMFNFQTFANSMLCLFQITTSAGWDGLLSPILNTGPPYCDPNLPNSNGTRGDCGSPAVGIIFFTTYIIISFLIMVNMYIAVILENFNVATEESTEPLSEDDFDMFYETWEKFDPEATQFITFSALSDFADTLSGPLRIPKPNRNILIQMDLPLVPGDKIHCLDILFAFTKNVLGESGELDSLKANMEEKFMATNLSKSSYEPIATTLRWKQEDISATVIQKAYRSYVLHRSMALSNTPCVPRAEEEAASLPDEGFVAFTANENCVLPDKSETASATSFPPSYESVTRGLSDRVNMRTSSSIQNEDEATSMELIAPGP
In short: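 Whole-cell manual patch clamp on cells stably overexpressing Nav1.8, held at -120 mV and stepped to 0 mV for 50 ms every 20 s (resting-state protocol). Compounds were perfused in ascending concentrations, each for 5 min or until stable; block of peak current was calculated at steady state.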

[3] = Pharmacokinetic study in ICR mice; type: in vivo; settings: male, mouse, plasma
Experimental: Experimental Example 3: Pharmacokinetic study of compounds in ICR mice
(§2) Experimental animals: ICR mice, male, 6-8 weeks old.
as §1
The injection group was given free access to food and water. The oral group was fasted overnight (> 12 h) with free access to water, and was fed 4 h after administration. Blood samples were collected from the jugular vein of ICR mice at the following time points: 5 min, 15 min, 0.5 h, 1 h, 2 h, 4 h, 8 h, and 24 h after injection administration; 15 min, 0.5 h, 1 h, 2 h, 4 h, 6 h, 8 h, and 24 h after oral administration. The collected blood samples were anticoagulated, placed in an ice bath, and then centrifuged for 5 min to separate plasma. The plasma was stored at -70 °C for analysis.
Sample test: The concentrations of the designated compound drugs in plasma were determined by the LC-MS/MS method; the main pharmacokinetic parameters were calculated using the Winnolin 8.3 non-compartmental model. Pharmacokinetic test results of some compounds of the present disclosure in ICR mice

[4] = Tissue distribution study (dorsal root ganglia) in ICR mice; type: in vivo; settings: male, mouse, oral administration 20 mg/kg
Experimental: Experimental Example 4: Tissue distribution study of compounds in ICR mice
as §2, §1
Experimental design: The test compounds were administered to ICR mice as a single dose via oral administration (20 mg/kg; n = 3, 3 time points). Blood samples were collected at 0.25 h, 2 h, and 12 h after oral administration, followed by sacrifice of the animals. Dorsal root ganglia (DRG) were collected, rinsed with ice-cold normal saline to remove residual blood, blotted dry with absorbent paper, and stored at -70 °C for analysis.
Sample test: The concentrations of the compound drugs in dorsal root ganglia were determined by the LC-MS/MS method.

[5] = system: acetic acid writhing model; test: Mouse acetic acid writhing model; type: in vivo, ICR mice; settings: for Number of writhing responses: ICR mice, 60 min before 0.8% acetic acid i.p., 30 min observation, Mean + SD, n = 10
Experimental: Experimental Example 11: Pharmacodynamic effect study of compounds in mouse acetic acid writhing model
Experimental animals: ICR mice, male, 20-24 g.
Compound preparation: 5% (final preparation volume) of DMSO was added to dissolve the test compound, and then 10% (final preparation volume) of Cremophor EL and 85% Saline were sequentially added; an appropriate amount of Etoricoxib was weighed, 5% (final preparation volume) of DMSO was added to dissolve the test compound, and then 5% (final preparation volume) of HS-15 and 90% Saline were sequentially added.
• 1. The mice were randomly grouped based on the body weight for model establishment, with 10 animals per group. A 0.8% (v/v) acetic acid solution was intraperitoneally injected at an injection volume of 10 mL/kg. • 2. Administration and test
Administration was performed 60 min before modeling. After the acetic acid solution was injected, the number of writhing responses in mice was observed. […] The number of writhing responses was observed and recorded during two intervals: 0-15 min and 15-30 min, with a total observation duration of 30 min. Inhibition rate = (number of writhing responses in control group - number of writhing responses in administration group)/number of writhing responses in control group × 100%. The model control group was given normal saline, the positive control group 1 was given etoricoxib at 20 mg/kg, the positive control group 2 was given VX-548 at 50 mg/kg, and the remaining groups were given the compounds of the present disclosure according to the administration doses in the table below.

[6] = system: formalin pain model; test: Rat formalin pain model; type: in vivo, SD rats
Experimental: Experimental Example 10: Pharmacodynamic effect study of compounds in rat formalin pain model
Experimental animals: SD rats, male, 180-200 g.
Compound preparation: 5% (final preparation volume) of DMSO was added to dissolve the test compound, and then 10% (final preparation volume) of Cremophor EL and 85% Saline were sequentially added; an appropriate amount of Etoricoxib was weighed, 5% (final preparation volume) of DMSO was added to dissolve the test compound, and then 5% (final preparation volume) of HS-15 and 90% Saline were sequentially added; the tramadol injection was diluted with normal saline to the desired concentration.
Each group consisted of 10 animals, and 50 µL of a 5% formalin solution was injected using a microsyringe into the right plantar region.
2. Administration and test
Based on different pharmacokinetic properties of the drugs, the administration was performed at 0 min, 60 min, and 120 min before modeling. After injection of the formalin, the number of pain responses in the rats was observed. […] Spontaneous pain responses were observed once every 5 min, and the number of pain responses in the rats within 1 min was counted, with a total observation duration of 60 min. Inhibition rate = (number of pain responses in control group - number of pain responses in administration group)/number of pain responses in control group × 100%.
Table 12. Administration information of compounds of the present disclosure in rat formalin model

[7] = in vivo, Oral administration, 10 mg/kg
[8] = Oral administration (p.o.), 20 mg/kg
[9] = male, plasma, Oral administration, 10 mg/kg
[10] = male, plasma, intravenous, Injection, 2 mg/kg

## COc1c(C2C(C(=O)Nc3ccnc(C(N)=O)c3)OC(C)(C(F)(F)F)C2C)ccc(F)c1F (racemic) [VX-548(rac)]
[1]; in vivo, Injection, 2 mg/kg
  AUC(0-inf): 2650 ng·h/mL
  half-life: 2.64 h
[1]; [7]
  AUC(0-inf): 4970 ng·h/mL
  Cmax: 577 ng/mL
  Tmax: 2 h
  bioavailability: 37.6%
  half-life: 3.26 h

## COc1c([C@@H]2C[C@](C)(C(F)(F)F)S[C@H]2C(=O)Nc2ccc3c(c2)COB3O)ccc(F)c1F [Compound 119-A, (2R,3S,5R)-3-(3,4-difluoro-2-methoxyphenyl)-N-(1-hydroxy-1,3-dihydrobenzo[c][1,2]oxaborol-5-yl)-5-methyl-5-(trifluoromethyl)tetrahydrothiophene-2-carboxamide]
[2]
  IC50: 0.49 nM
[3]; [8]
  AUC(0-inf): 6740 ng·h/mL
[3]; iv, Injection (i.v.), 2 mg/kg
  AUC(0-inf): 842 ng·h/mL
[4]
  concentration at 0.25 h: 875 ng/g
  concentration at 2 h: 2580 ng/g
  concentration at 12 h: 199 ng/g
[5]; Dose 50 mg/kg
  Number of writhing responses: 18 ± 15
[5]; mouse acetic acid writhing model
  inhibition of the writhing effect compared with VX-548: better than VX-548

## COc1c(C2CC(C)(C(F)(F)F)SC2C(=O)Nc2ccnc(C(N)=O)c2)ccc(F)c1F (centres unmarked) [Compound 139, 4-(3-(3,4-difluoro-2-methoxyphenyl)-5-methyl-5-(trifluoromethyl)tetrahydrothiophene-2-carboxamido)picolinamide]
[2]
  IC50: 0.2 nM
[2]; read-out: Inhibition rate %
  inhibition at 0.01 µM: 98.2%
[1]
  t1/2, relative to VX-548: 2 times
[1]; [9]
  AUC(0-inf): 9310 ng·h/mL
  Cmax: 724 ng/mL
  Tmax: 4 h
  bioavailability: 48.5%
  half-life: 6.29 h
[1]; [10]
  AUC(0-inf): 3840 ng·h/mL
  half-life: 4.86 h
[1]; oral administration
  exposure level after oral administration, relative to VX-548: 2 times

## COc1c([C@@H]2C[C@](C)(C(F)(F)F)S[C@H]2C(=O)Nc2ccc3nnnn3c2)ccc(F)c1F [Compound 202-A, (2R,3S,5R)-3-(3,4-difluoro-2-methoxyphenyl)-5-methyl-N-(tetrazolo[1,5-a]pyridin-6-yl)-5-(trifluoromethyl)tetrahydrothiophene-2-carboxamide]
[2]; concentration of 1 nM, read-out: Inhibition rate %
  inhibition at 0.001 µM: 86.9%
[3]; Oral administration, 10 mg/kg
  AUC(0-inf): 12500 ng·h/mL
[3]; iv, Injection (i.v.), 2 mg/kg
  AUC(0-inf): 2050 ng·h/mL
[4]
  concentration at 0.25 h: 710 ng/g
  concentration at 2 h: 7200 ng/g
  concentration at 12 h: 2720 ng/g

## COc1c([C@@H]2C[C@](C)(C(F)(F)F)S[C@H]2C(=O)Nc2cccc(S(N)(=O)=O)c2)ccc(F)c1F [Compound 223-A, (2R,3S,5R)-3-(3,4-difluoro-2-methoxyphenyl)-5-methyl-N-(3-sulfamoylphenyl)-5-(trifluoromethyl)tetrahydrothiophene-2-carboxamide]
[2]
  IC50: 0.02 nM
[3]; [8]
  AUC(0-inf): 50600 ng·h/mL
[3]; iv, Injection (i.v.), 2 mg/kg
  AUC(0-inf): 7200 ng·h/mL
[4]
  concentration at 0.25 h: 511 ng/g
  concentration at 2 h: 2360 ng/g
  concentration at 12 h: 635 ng/g

## COc1c([C@@H]2C[C@](C)(C(F)(F)F)S[C@H]2C(=O)Nc2ccnc(C#N)c2)ccc(F)c1F [Compound 242-A, (2R,3S,5R)-N-(2-cyanopyridin-4-yl)-3-(3,4-difluoro-2-methoxyphenyl)-5-methyl-5-(trifluoromethyl)tetrahydrothiophene-2-carboxamide]
[2]; read-out: Inhibition rate %
  inhibition at 0.01 µM: 97.7%
[3]; Oral administration, 10 mg/kg
  AUC(0-inf): 18600 ng·h/mL
[3]; iv, Injection (i.v.), 2 mg/kg
  AUC(0-inf): 3480 ng·h/mL
[4]
  concentration at 0.25 h: 597 ng/g
  concentration at 2 h: 6070 ng/g
  concentration at 12 h: 2220 ng/g

## Cc1ccc(-c2ncc(Cl)cc2-c2ccc(S(C)(=O)=O)cc2)cn1 [Etoricoxib]
[6]; SD rats, 30 mg/kg p.o. 60 min before 5% formalin, 0 min, Mean + SD, n = 10
  Number of pain responses 0 min: 37.5±9.2
[6]; SD rats, 30 mg/kg p.o. 60 min before 5% formalin, 10 min, Mean + SD, n = 10
  Number of pain responses 10 min: 2.0±2.4
[6]; SD rats, 30 mg/kg p.o. 60 min before 5% formalin, 15 min, Mean + SD, n = 10
  Number of pain responses 15 min: 10.1±4.0
[6]; SD rats, 30 mg/kg p.o. 60 min before 5% formalin, 30 min, Mean + SD, n = 10
  Number of pain responses 30 min: 14.3±5.3
[6]; SD rats, 30 mg/kg p.o. 60 min before 5% formalin, 40 min, Mean + SD, n = 10
  Number of pain responses 40 min: 10.8±6.2
[6]; SD rats, 30 mg/kg p.o. 60 min before 5% formalin, 50 min, Mean + SD, n = 10
  Number of pain responses 50 min: 5.1±8.5
[6]; SD rats, 30 mg/kg p.o. 60 min before 5% formalin, 60 min, Mean + SD, n = 10
  Number of pain responses 60 min: 3.3±3.7
[6]; rat formalin pain model, first phase immediately after injection, second phase about 15-20 min after
  analgesic activity in the first and second phases: superior analgesic effects in the first and second phases, respectively
[5]; Dose 20 mg/kg
  Number of writhing responses: 29 ± 11
